According to PMC10828988, “Tuning the Softness of the Pendant Arms and the Polyazamacrocyclic Backbone to Chelate the ^203Pb/^212Pb Theranostic Pair” (Inorganic Chemistry, 2024):
“And” between values parts separate entries of the source, which are not always exact repeats. Identical values can stand only once. Like-named read-outs stand apart in the source and are kept apart here. Marks after values point to notes of the source that are not given here.

How the values were obtained:
[1] = Acid-mediated dissociation kinetics in aqueous HCl (UV-Vis); type: physicochemical; conditions: room temperature
Source text: The dissociation kinetics of the Pb^2+ complexes were studied under pseudo-first-order conditions at room temperature without control of the ionic strength by the addition of a concentrated aqueous solution of HCl (0.01 to 1 M) to aqueous solutions of the preformed complexes. The concentration of the Pb^2+ complexes after the H^+ addition was 1.0 × 10^–4 M. The dissociation reaction was followed by the decreasing intensity of the absorption band of the complexes at the characteristic wavelength (Table S2) using the same apparatus described for the formation kinetic measurements (vide supra).
The data were processed and fitted using the equation lnAt = lnA0 – ^dkobst, where At and A0 are the absorbances at time t and at the beginning of the reaction and ^dkobs is the observed dissociation rate constant. The corresponding half-life was obtained from the equation t1/2 = ln(2)/^dkobs.

[2] = Out-of-cell UV-Vis spectrophotometric titrations (stability constants, pPb); type: physicochemical; conditions: for log β, Pb^2+ + L ⇋ [PbL]: UV–Vis spectrophotometric titrations, I = 0.15 M NaNO3, T = 25 °C; for pPb = −log[Pb^2+]free / pPb* (−log of free Pb^2+ plus hydrolysis products): calculated at CPb^2+ = 10^–6 M, Cligand = 10^–5 M, pH = 7.4
Experimental: The ionic strength (I) was fixed to 0.15 M using sodium nitrate (NaNO3) as background electrolytes. All of the experiments described below were repeated at least in triplicate.
UV–Vis spectrophotometric titrations were carried out by the out-of-cell method in the pH range of 0–12 at T = 25 °C. […] A Mettler Toledo pH meter with a glass electrode was used to measure the pH. […] In highly acidic solutions (pH ≪ 2), the pH was computed from the acid concentration (pH = −logCH^+). After the pH adjustment, the vials were sealed, heated to T = 60 °C to ensure complete Pb^2+ complexation, and cooled to room temperature. The absorption spectra were recorded using the same apparatus described for the kinetic measurements (vide supra). The equilibrium was reached when no variations of the electronica spectra or the pH were detected.
All equilibrium data were processed using the least-squares fitting program PITMAP as described in our previous works.[2],[4],[28] The overall equilibrium constants refer to the general equilibria pM^m+ + qH^+ + rL^l– ⇆ MpHqLr^pm+q–rl, where M^m+ represent the metal ion and L^l– represents the deprotonated ligand, and are designated as logβ (βpqr = [MpLqHr]/[M]^p[L]^q[H]^r). The refinements of log β included the previously determined ligand protonation constants and the Pb^2+ hydrolysis products whose equilibrium constants were fixed to the literature values.[27],[39] […] The errors quoted are the standard deviations of the overall stability constants calculated by the PITMAP program.

[3] = Formation kinetics of Pb2+ complexes (UV-Vis / 1H NMR); type: physicochemical; conditions: for time to reach equilibrium of Pb^2+ complexation: pH = 5, equimolar ligand and metal concentrations (10^–4 M), room temperature; for ability to complex Pb^2+: pH < 7, 1H NMR of metal-ligand mixtures; for Pb^2+ complex formation: below pH = 4, after 2 weeks at room temperature or prolonged heating, UV-Vis
Experimental: The formation kinetics of the Pb^2+ complexes was evaluated at room temperature by UV–Vis or ^1H NMR spectroscopy. A typical experiment was performed by mixing equimolar amounts of metal and ligand solutions (final concentrations: 1.0 × 10^–4 M for UV–Vis, 1.0 × 10^–3 M for ^1H NMR) in buffered media at pH = 2 (HCl 10^–2 M), pH = 3.7 (formic/formiate buffer), pH = 5 (acetic/acetate buffer), and pH = 7.4 (2-[4-(2-hydroxyethyl)piperazin-1-yl]ethanesulfonic acid, i.e., HEPES, buffer). To avoid the formation of PbCO3 (Ks = 7.4 × 10^–14), water was boiled before each measurement.
The electronic spectra were collected in the 200–800 nm range at different time points using a Cary 60 UV–Visible spectrophotometer (Agilent) equipped with a 1 cm path length quartz cell. The complexation reactions were monitored by the increase in the absorption peaks diagnostic of the Pb^2+-ligand complex formation at the characteristic wavelength (Table S2) over time. ^1H NMR spectra were recorded on a 400 MHz Bruker Avance III HD spectrometer. All data were collected […] with Topspin 3.5 using standard Bruker processing parameters with Topspin 4.1.1 software. […] Water suppression was carried out with the excitation sculpting pulse scheme.[38]

[4] = Concentration-dependent radiolabeling with [203Pb]Pb2+ (iTLC); conditions: for effect of a change in reaction time on RCI: 5 min vs 1 h; for effect of a change in reaction time on RCI / radiochemical incorporation (RCI) of [^203Pb]Pb^2+ / RCI of [^203Pb]Pb^2+: pH = 7, room temperature; for radiochemical incorporation of [^203Pb]Pb^2+: room temperature, 5 min reaction time, chelator concentration as low as 10^–5 M; for RCI of [^203Pb]Pb^2+ on heating: T = 80 °C; for RCI of [^203Pb]Pb^2+: after 5 min
Experimental: Water replaced the ligands in the negative control. All of the radiolabeling for the cyclen-based derivatives was performed at room temperature and monitored at 5 min and 1 h time points whereas heating at T = 80 °C was also employed for TACD3S, TRI4S, and TE4S. All radiolabeling reactions were repeated at least in triplicate.
Radiochemical incorporation (RCI) was determined via instant thin-layer chromatography (iTLC) with silicic acid (SA)-impregnated paper TLC plates (iTLC-SA, Agilent Technologies, USA). Ethylenediamine tetraacetic acid (EDTA, 50 mM, pH = 5.5) was used as the eluent. […] The iTLC plates were analyzed on an Eckert & Ziegler AR-2000 TLC scanner, and all the data were processed with Eckert & Ziegler WinScan software.

[5] = Direct in-cell pH-potentiometric titrations; type: physicochemical; conditions: pH-potentiometry, I = 0.15 M NaNO3, T = 25 °C
Experimental: Nitric acid (HNO3) solutions were prepared at ∼10^–1 M by dilution of the concentrated acid (Aristar - VWR Chemicals, 69%) and standardized against sodium carbonate (Aldrich, 99.95–100.5%). Carbonate-free sodium hydroxide (NaOH) solutions were prepared at ∼10^–1 M from commercial pellets (Fluka, 99% min) using freshly boiled ultrapure water and standardized using the previously standardized acid. […] Pb^2+ solutions were preprepared from analytical-grade nitrate salt (Pb(NO3)2, Sigma-Aldrich, 99%) and standardized using complexometric titrations with ethylenediaminetetraacetic acid (EDTA) with xylenole orange as an indicator. The ionic strength (I) was fixed to 0.15 M using sodium nitrate (NaNO3) as background electrolytes. All of the experiments described below were repeated at least in triplicate.
Direct (in-cell) pH-potentiometric titrations were carried out with an automated Metrohm 765 Dosimat titrating system using a Metrohm 713 pH meter. […]
All equilibrium data were processed using the least-squares fitting program PITMAP as described in our previous works.[2],[4],[28] […] The refinements of log β included the previously determined ligand protonation constants and the Pb^2+ hydrolysis products whose equilibrium constants were fixed to the literature values.[27],[39] […] The errors quoted are the standard deviations of the overall stability constants calculated by the PITMAP program.

[6] = parameters: method as in PMID 35571797, doi:10.1002/ejic.200700819; conditions: state-of-the-art ligands, computed from literature constants; cited from earlier work
[7] = parameters: method as in PMID 33527221; conditions: cited from earlier work

Row | Compound | log β, Pb^2+ + L ⇋ [PbL] [2] | pPb = −log[Pb^2+]free [2] | pPb* (−log of free Pb^2+ plus hydrolysis products) [2] | time to reach equilibrium of Pb^2+ complexation [3] | effect of a change in reaction time on RCI [4] | radiochemical incorporation (RCI) of [^203Pb]Pb^2+ ([4]; ligand 10^–4 M, 1 h) | radiochemical incorporation (RCI) of [^203Pb]Pb^2+ ([4]; ligand 10^–7 M, 1 h) [%] | ability to complex Pb^2+ [3] | RCI of [^203Pb]Pb^2+ on heating ([4]; ligand 10^–4 M) | other results
1 | CSCCN1CCNCCN(CCSC)CCN(CCSC)CC1.[Pb+2] [[Pb(DO3S)]^2+] | – | – | – | – | – | – | – | – | – | t1/2 acid-assisted dissociation ([1]; CHCl 0.01 M): 12 ± 2 min; ^dkobs acid-assisted dissociation ([1]; CHCl 0.1 M): 1.5 ± 0.3 min^–1; t1/2 acid-assisted dissociation ([1]; CHCl 0.1 M): 0.47 ± 0.09 min; t1/2 acid-assisted dissociation ([1]; CHCl 1.0 M): ^b (Instantaneous decomplexation during the reagent mixing time.)
2 | CSCCN1CCN(CC(=O)O)CCN(CCSC)CCN(CC(=O)O)CC1 [DO2A2S, 1,7-bis[2-(methylsulfanyl)ethyl]-1,4,7,10-tetraazacyclododecane-4,10-diacetic acid] | 18.3 ± 0.1 | 15.7 | 15.4 | practically instantaneous | no effect | > 90% | 56 ± 4 | – | – | radiochemical incorporation (RCI) of [^203Pb]Pb^2+ ([4]; ligand 10^–5 M, 1 h): > 90%; radiochemical incorporation (RCI) of [^203Pb]Pb^2+ ([4]; ligand 10^–6 M, 1 h): 68 ± 1%; radiochemical incorporation of [^203Pb]Pb^2+ [4]: quantitative radiochemical incorporation; log β, Pb^2+ + H^+ + L^2– ⇋ [PbHL]^+ [5]: 20.89 ± 0.07 ^c; log β, Pb^2+ + L^2– ⇋ [PbL] [5]: 18.2 ± 0.1
3 | 1,4,7-tris[2-(methylsulfanyl)ethyl]-10-acetamido-1,4,7,10-tetraazacyclododecane [DO3SAm] | 16.8 ± 0.1 | 14.2 | 13.9 | 1 h | no effect | > 90% | 14 ± 4 | – | – | radiochemical incorporation (RCI) of [^203Pb]Pb^2+ ([4]; ligand 10^–5 M, 1 h): > 90%; radiochemical incorporation (RCI) of [^203Pb]Pb^2+ ([4]; ligand 10^–6 M, 1 h): 68 ± 4%; radiochemical incorporation of [^203Pb]Pb^2+ [4]: quantitative radiochemical incorporation
4 | NC(=O)CN1CCN(CC(N)=O)CCN(CC(N)=O)CCN(CC(N)=O)CC1 [TCMC, 1,4,7,10-tetraaza-1,4,7,10-tetra-(2-carbamoylmethyl)-cyclododecane, reference compound] | – | – | – | – | no effect | – | 41 ± 1 | – | – | radiochemical incorporation (RCI) of [^203Pb]Pb^2+ ([4]; ligand concentrations higher than 10^–6 M): quantitative; pPb [6]: > 18
5 | CSCCN1CCCN(CCSC)CCN(CCSC)CCN(CCSC)CC1 [TRI4S, 1,4,7,10-tetrakis[2-(methylsulfanyl)ethyl]-1,4,7,10-tetrazacyclotridecane] | – | – | – | – | – | no radiometal incorporation was observed | – | not be able to complex Pb^2+ | only vaguely improved | –
6 | CSCCN1CCN(CCSC)CCN(CCSC)CCN(CCSC)CC1 [DO4S, 1,4,7,10-tetrakis[2-(methylsulfanyl)ethyl]-1,4,7,10-tetraazacyclododecane] | 12.3 ± 0.1 | 10.2 | 10.0 | 24 h | – | 81 ± 10% and 81% | 1.4 ± 0.4 | – | – | Pb^2+ complex formation [3]: No complex formation was detected; reaction time of Pb^2+ complexation ([3]; pH = 7.4, room temperature): 1 h; RCI of [^203Pb]Pb^2+ [4]: 35%
7 | CSCCN1CCCN(CCSC)CCCN(CCSC)CCC1 [TACD3S, 1,5,9-tris[2-(methylsulfanyl)ethyl]-1,5,9-triazacyclododecane] | – | – | – | – | – | no radiometal incorporation was observed | – | not be able to complex Pb^2+ | only vaguely improved | –
8 | CSCCN1CCNCCN(CCSC)CCN(CCSC)CC1 [DO3S, 1,4,7-tris[2-(methylsulfanyl)ethyl]-1,4,7,10-tetraazacyclododecane] | 14.2 ± 0.1 | 11.3 | 11.0 | 6 h | – | 88 ± 1% and 88% | 2 ± 1 | – | – | Pb^2+ complex formation [3]: No complex formation was detected; RCI of [^203Pb]Pb^2+ [4]: 65%
9 | O=C(O)CN1CCN(CC(=O)O)CCN(CC(=O)O)CCN(CC(=O)O)CC1 [DOTA, 1,4,7,10-tetraazacyclododecane-1,4,7,10-tetraacetic acid] | – | – | – | – | – | – | – | – | – | RCI of [^203Pb]Pb^2+ ([7]; ligand 10^–4 M): 96 ± 1%; RCI of [^203Pb]Pb^2+ ([7]; ligand 10^–5 M): 76 ± 9%; RCI of [^203Pb]Pb^2+ ([7]; ligand 10^–6 M): 3 ± 1%; RCI of [^203Pb]Pb^2+ ([7]; ligand 10^–7 M): 1.5 ± 0.2%; pPb [6]: 20
10 | CSCCN1CCCN(CCSC)CCN(CCSC)CCCN(CCSC)CC1 [TE4S, 1,4,8,11-tetrakis[2-(methylsulfanyl)ethyl]-1,4,8,11-tetrazacyclotetradecane] | – | – | – | – | – | no radiometal incorporation was observed | – | not be able to complex Pb^2+ | only vaguely improved | –
